Details: for mass density / kinematic viscosity / speed of sound / vapor or sublimation pressure: Liquid; for mass density: Vibrating tube method; for surface tension liquid-gas: Drop volume; for kinematic viscosity: Capillary tube (Ostwald / Ubbelohde) method; for speed of sound: Frequency=3 MHz, Sing-around technique in a fixed-path interferometer; for vapor or sublimation pressure: Ebulliometric method (Recirculating still)

CC(=O)c1cccs1 [2-acetylthiophene]
Details | kinematic viscosity [m2/s] | mass density [kg/m3] | speed of sound [m/s]
313.15 K, 25000 kPa | – | 1167.08 | –
313.15 K, 30000 kPa | – | 1169.85 | –
313.15 K, 35000 kPa | – | 1172.56 | –
313.15 K, 40000 kPa | – | 1175.19 | –
313.15 K, 45000 kPa | – | 1177.74 | –
313.15 K, 50000 kPa | – | 1180.24 | –
313.15 K, 55000 kPa | – | 1182.67 | –
313.15 K, 60000 kPa | – | 1185.04 | –
313.15 K, 65000 kPa | – | 1187.36 | –
315.65 K, 101 kPa | 1.58e-06 | 1149.57 | 1409
318.15 K, 100 kPa | – | 1147.15 | –
318.15 K, 101 kPa | 1.51e-06 | 1147.18 | 1400.3
318.15 K, 2000 kPa | – | 1148.56 | –
318.15 K, 5000 kPa | – | 1150.49 | –
318.15 K, 7000 kPa | – | 1151.77 | –
318.15 K, 10000 kPa | – | 1153.65 | –
318.15 K, 15000 kPa | – | 1156.74 | –
318.15 K, 20000 kPa | – | 1159.72 | –
318.15 K, 25000 kPa | – | 1162.64 | –
318.15 K, 30000 kPa | – | 1165.47 | –
318.15 K, 35000 kPa | – | 1168.21 | –
318.15 K, 40000 kPa | – | 1170.9 | –
318.15 K, 45000 kPa | – | 1173.5 | –
318.15 K, 50000 kPa | – | 1176.04 | –
318.15 K, 55000 kPa | – | 1178.53 | –
318.15 K, 60000 kPa | – | 1180.93 | –
318.15 K, 65000 kPa | – | 1183.29 | –
320.65 K, 101 kPa | 1.45e-06 | 1144.79 | 1391.8
323.15 K, 100 kPa | – | 1142.34 | –
323.15 K, 101 kPa | 1.39e-06 | 1142.39 | 1383.4
323.15 K, 2000 kPa | – | 1143.79 | –
323.15 K, 5000 kPa | – | 1145.78 | –
323.15 K, 7000 kPa | – | 1147.09 | –
323.15 K, 10000 kPa | – | 1149.02 | –
323.15 K, 15000 kPa | – | 1152.17 | –
323.15 K, 20000 kPa | – | 1155.23 | –
323.15 K, 25000 kPa | – | 1158.22 | –
323.15 K, 30000 kPa | – | 1161.08 | –
323.15 K, 35000 kPa | – | 1163.89 | –
323.15 K, 40000 kPa | – | 1166.63 | –
323.15 K, 45000 kPa | – | 1169.28 | –
323.15 K, 50000 kPa | – | 1171.88 | –
323.15 K, 55000 kPa | – | 1174.4 | –
323.15 K, 60000 kPa | – | 1176.86 | –
323.15 K, 65000 kPa | – | 1179.25 | –
325.65 K, 101 kPa | 1.34e-06 | 1140 | 1375
328.15 K, 100 kPa | – | 1137.56 | –
328.15 K, 101 kPa | 1.29e-06 | 1137.61 | 1366.5
328.15 K, 2000 kPa | – | 1139.02 | –
328.15 K, 5000 kPa | – | 1141.06 | –
328.15 K, 7000 kPa | – | 1142.39 | –
328.15 K, 10000 kPa | – | 1144.38 | –
328.15 K, 15000 kPa | – | 1147.6 | –
328.15 K, 20000 kPa | – | 1150.78 | –
328.15 K, 25000 kPa | – | 1153.79 | –
328.15 K, 30000 kPa | – | 1156.77 | –
328.15 K, 35000 kPa | – | 1159.56 | –
328.15 K, 40000 kPa | – | 1162.34 | –
328.15 K, 45000 kPa | – | 1165.07 | –
328.15 K, 50000 kPa | – | 1167.69 | –
328.15 K, 55000 kPa | – | 1170.28 | –
328.15 K, 60000 kPa | – | 1172.79 | –
328.15 K, 65000 kPa | – | 1175.21 | –
330.65 K, 101 kPa | 1.24e-06 | 1135.21 | 1358.1
333.15 K, 100 kPa | – | 1132.76 | –
333.15 K, 101 kPa | 1.2e-06 | 1132.81 | 1349.5
333.15 K, 2000 kPa | – | 1134.24 | –
333.15 K, 5000 kPa | – | 1136.33 | –
333.15 K, 7000 kPa | – | 1137.7 | –
333.15 K, 10000 kPa | – | 1139.72 | –
333.15 K, 15000 kPa | – | 1143.11 | –
333.15 K, 20000 kPa | – | 1146.25 | –
333.15 K, 25000 kPa | – | 1149.39 | –
333.15 K, 30000 kPa | – | 1152.35 | –
333.15 K, 35000 kPa | – | 1155.23 | –
333.15 K, 40000 kPa | – | 1158.08 | –
333.15 K, 45000 kPa | – | 1160.83 | –
333.15 K, 50000 kPa | – | 1163.52 | –
333.15 K, 55000 kPa | – | 1166.14 | –
333.15 K, 60000 kPa | – | 1168.68 | –
333.15 K, 65000 kPa | – | 1171.17 | –
335.65 K, 101 kPa | 1.16e-06 | 1130.41 | 1340.8
338.15 K, 100 kPa | – | 1127.97 | –
338.15 K, 101 kPa | 1.12e-06 | 1128.01 | 1332.2
338.15 K, 2000 kPa | – | 1129.47 | –
338.15 K, 5000 kPa | – | 1131.61 | –
338.15 K, 7000 kPa | – | 1133.01 | –
338.15 K, 10000 kPa | – | 1135.08 | –
338.15 K, 15000 kPa | – | 1138.55 | –
338.15 K, 20000 kPa | – | 1141.78 | –
338.15 K, 25000 kPa | – | 1144.86 | –
338.15 K, 30000 kPa | – | 1147.94 | –
338.15 K, 35000 kPa | – | 1150.94 | –
338.15 K, 40000 kPa | – | 1153.82 | –
338.15 K, 45000 kPa | – | 1156.64 | –
338.15 K, 50000 kPa | – | 1159.38 | –
338.15 K, 55000 kPa | – | 1162.04 | –
338.15 K, 60000 kPa | – | 1164.64 | –
338.15 K, 65000 kPa | – | 1167.11 | –

Details | surface tension liquid-gas [mN/m] | vapor or sublimation pressure [kPa]
315.65 K | 41.14 | –
318.15 K | 40.87 | –
320.65 K | 40.58 | –
323.15 K | 40.27 | –
325.65 K | 39.97 | –
328.15 K | 39.7 | –
330.65 K | 39.43 | –
333.15 K | 39.12 | –
335.65 K | 38.88 | –
336.16 K | – | 0.305
338.15 K | 38.58 | –
340.77 K | – | 0.4
342.94 K | – | 0.45
345.74 K | – | 0.54
350.41 K | – | 0.69
356.58 K | – | 0.955
362.84 K | – | 1.295
365.84 K | – | 1.545
371.37 K | – | 2.02
376.26 K | – | 2.52
383.49 K | – | 3.53
389.55 K | – | 4.545
394.16 K | – | 5.5
400.53 K | – | 7.065
407.19 K | – | 9.015
412.74 K | – | 11.05
417.12 K | – | 13.02
421.69 K | – | 15.2
423.25 K | – | 15.99
426.08 K | – | 17.63
429.93 K | – | 20.05
433.16 K | – | 22.2
435.59 K | – | 24.04
438.37 K | – | 26.19
440.66 K | – | 28.12
442.49 K | – | 29.8
445.02 K | – | 32.16
